Paper PMC5073322, “Novel Natural Product-like Caged Xanthones Bearing a Carbamate Moiety Exhibit Antitumor Potency and Anti-Angiogenesis Activity In vivo” (Scientific Reports, 2016)
In brackets after ≈: the same amount, converted by molar mass. Blank lines part the entries; values can stand above or below the compound they belong to.

Legend:
A549 = test: MTT antiproliferative assay, A549; conditions: Homo sapiens, A549, 72 h, read-out: IC50 A549
Procedure: (§1) The inhibition of tumour cell growth was measured by a modified tetrazolium (MTT) salt assay, as previously described[39]. Cells were cultured in a 96-well plate and treated with culture medium alone or different concentrations of the compounds. The cells were incubated for 72 h, and then, the MTT assay reagent was added. After a 4 h incubation, the formazan product was quantitated at 570 nm. The IC50 values (the concentrations that gave rise to 50% inhibition of cell viability) were calculated using GraphPad Prism 6 using a variable slope (four parameters).

A549/taxol = test: MTT antiproliferative assay, Taxol-resistant A549; type: cell-based; conditions: MTT, 72 h; Taxol-resistant A549; read-out: IC50 A549/taxol
[1] = tested on: HepG2, HCT116, MDA-MB-231 and A549 cells; test: MTT antiproliferative assay, cell line panel
Procedure: as §1

A549/cisplatin = test: MTT antiproliferative assay, cisplatin-resistant A549; type: cell-based; conditions: Homo sapiens, MTT, 72 h, read-out: IC50 A549/cisplatin
Procedure: as §1

HCT116 = test: MTT antiproliferative assay, HCT116; conditions: Homo sapiens, HCT-116, 72 h, read-out: IC50 HCT116
Procedure: as §1

MDA-MB-231 = test: MTT antiproliferative assay, MDA-MB-231; conditions: Homo sapiens, MDA-MB-231, 72 h, read-out: IC50 MDA-MB-231
Procedure: as §1

Water solubility by HPLC = type: physicochemical; conditions: thermodynamic from solid; deionized water, stirred overnight, HPLC 290 nm; read-out: S, water solubility
Excerpt: The physicochemical characteristics of compounds directly determine their potential drug-like properties. Assessing a compound’s physicochemical properties before performing in vivo evaluations can guide further studies and minimize the time and cost associated with drug discovery. Therefore, parallel to the in vivo study, these solubilities of these compounds in water were experimentally measured using high-performance liquid chromatography (HPLC). Based on the results of full wave scanning, 290 nm was chosen as the maximum absorption wavelength for HPLC detection.
A HPLC system with an ultraviolet (UV) detector was used to detect the solubility of the compounds. The optimal wavelength was 290 nm. Ethanol/water (85:15) was an efficient eluent at a flow rate of 0.5 mL/min. The compounds were stirred in deionized water overnight to maximize the retention of the compounds in solution. Then, the solutions were filtered and the supernatant was used as a fluid sample for HPLC detection. The permeability (Pe) of some of the compounds was tested with the help of a standard PAMPA (pION), as previously reported. PAMPA was performed on a PAMPA Explorer instrument (pION, Inc., Woburn, MA) with the PAMPA Explorer command software (Version 3.7.4.1). The compounds were diluted to 10 mM with the system solution buffer (pH 7.4). Then, 150 μL of the diluted compound solution was transferred to a UV plate, and the UV spectrum was collected and used as a reference. Then, paint the membrane with 5 μL of gastrointestinal tract (GIT) lipid. The acceptor chamber was filled with 200 μL of acceptor solution buffer, and the donor chamber was filled with 200 μL of diluted compound solution. The PAMPA sandwich was assembled and left at 25 °C for 4 h. The UV spectra (240–500 nm) from the donor and the acceptor were collected. The permeability coefficient was calculated with the PAMPA Explorer Command software (Version 3.7.4.1) based on the area under the curve (AUC) of the reference plate, the donor plate, and the acceptor plate. The permeability coefficient of the compound was tested for four times, and the data are shown as the average values. Ketoprofen (4.5×10^−6 cm/s) and propranolol (112.8×10^−6 cm/s) were used as the standards in this assay.

HepG2 = test: MTT antiproliferative assay, HepG2; conditions: Homo sapiens, HepG2, 72 h, read-out: IC50 HepG2
Procedure: as §1

HepG2 tumours = test: HepG2 hepatoblastoma xenograft in nude mice; type: in vivo; conditions: control groups of the IV study, dose not given
Procedure: Given the in vitro anti-tumour cell activity of 8n, we continued to evaluate its in vivo effect in hepatoblastoma xenograft models using previously reported methods, and the water-soluble anti-cancer drug 5-fluorouracil (5-FU) was used as a positive control. After tumours were established, the mice were IV injected with 2.5, 5, 10 or 50 mg/kg 8n; the lead compound DDO-6101 and antitumour drug 5-FU were used as controls. All mice had normal weights and quality of life in in vivo tests. […] The in vivo activity of 8n was also evaluated after oral administration. […] This observation may be attributed to the improved physicochemical properties of 8n compared to those of DDO-6101, such as aqueous solubility and cell membrane permeability, which were provided by modification with the carbamate moiety.
Figure 7 (A) The tumour diameters were measured and used to calculate the tumour volumes. The HepG2 xenograft-bearing mice were intravenously injected with 2.5, 5, 10 and 50 mg/kg 8n for 20 days. (B) After 20 days, mice were sacrificed and the individual tumours were weighed. *p < 0.05, […]; Student’s t-test (n = 6). (C) The tumour diameters were measured and used to calculate the tumour volumes. The HepG2 xenograft-bearing mice were orally administered 50 mg/kg 8n, 50 mg/kg DDO-6101 or 10 mg/kg 5-FU for 20 days.
All studies were performed in compliance with the relevant guidelines and regulations. Tumours on female nude mice were established by injecting 1×10^7 HepG2 cells on the dorsal surface. After four weeks, tumours of approximately 150 mm^3 were cut into pieces that were 3 mm×3 mm×3 mm in size and were then implanted in the dorsal surface of other female nude mice. One week later, mice implanted with xenografts of 100 mm^3 were selected, randomized, and […] injected with 2.5, 5, or 10-mg/kg 8n or vehicle daily for another three weeks. The tumour dimensions were measured daily with vernier calipers, and the tumour volumes were calculated using the formula: volume = (width)^2 × length/2.

[2] = biological target: Recombinant human Hsp90 protein; test: Hsp90 ATPase activity assay; type: biochemical; conditions: ADP detection, ATP 100 μM
Excerpt: Lianru Zhang, Brian S. J. Blagg, et al. reported that GA inhibited Hsp90 ATPase in vitro[21][38]. The effects of these compounds on Hsp90 ATPase activity were examined by measuring the ability of Hsp90 to hydrolyse ATP using a homogeneous time-resolved fluorescence (HTRF) assay to determine whether the caged-xanthone-derivatives of GA inhibited Hsp90. […] The inhibition of Hsp90 could decrease client protein levels. Based on the enzymatic, structural, and antiproliferative results, 8n was chosen for further investigation.
Figure 9 (A) The caged compounds (50 μM) inhibited the Hsp90 ATPase activity in a HTRF-based inhibition assay. (B) The IC50 values for the inhibition of Hsp90 ATPase by 8n, 8o and GA as detected by the HTRF Transcreener ADP kit. […] The amount of ADP generated was detected. […] (D) The mRNA expression of VEGF was determined by real-time quantitative reverse-transcriptase polymerase chain reaction (RT-PCR) and analysed by the delta Ct method. […]
To measure the Hsp90 ATPase activity, a ADP Hunter Plus Assay kit from DiscoverX was used as previously described. […] Then, the plate was incubated for another 0.5 h after the addition of ATP (100 μM), followed by addition of the detection reagent, and the fluorescence was measured at an excitation wavelength 540 nm and emission wavelength of 620 nm using a spectrophotometer (Varioskan multimode, Thermo). […]

[3] = set-up: method as in PMID 23167526; conditions: cited from earlier work
Heps tumour = tested on: Heps tumour; set-up: method as in PMID 25958244; conditions: Heps-transplanted mice, intravenous (IV) administration; cited from earlier work

IC50 (A549): 3000 ± 800 nM
IC50 (A549/taxol): 1620 ± 100 nM
IC50 ([1]; Homo sapiens, read-out: IC50 values, range over the cancer cell lines): 970 to 1490 nM
IC50 (A549/cisplatin): 1530 ± 200 nM
IC50 (HCT116): 1490 ± 170 nM
IC50 (MDA-MB-231): 970 ± 90 nM
solubility (Water solubility by HPLC): 20 µM (≈ 8.45 µg/mL)
IC50 (HepG2): 1070 ± 90 nM
SMILES: CC(=O)Oc1cccc2c1C(=O)C1=CC3CC4C(C)(C)OC(CC=C(C)C)(C3=O)C14O2 (stereo not shown) [Compound 1]

IC50 (HCT116): 6100 ± 190 nM
IC50 (MDA-MB-231): 1800 ± 60 nM
solubility (Water solubility by HPLC): 10 µM (≈ 3.94 µg/mL)
IC50 (HepG2): 8550 ± 430 nM
SMILES: COc1cccc2c1C(=O)C1=CC3CC4C(C)(C)OC(CC=C(C)C)(C3=O)C14O2 (stereo not shown) [Compound 3]
fold less active than DDO-6101 ([1]; three cancer cell lines): 4–8 fold

SMILES: O=c1[nH]cc(F)c(=O)[nH]1 [Compound 5-FU, 5-fluorouracil, reference compound]
inhibition of the tumour volume, control groups (HepG2 tumours): 50.95%

SMILES: CO[C@H]1/C=C\C=C(/C)C(=O)NC2=CC(=O)C(NCCN(C)C)=C(C[C@@H](C)C[C@H](OC)[C@H](O)[C@@H](C)/C=C(\C)[C@@H]1OC(N)=O)C2=O [Compound 17-DMAG, 17-(Dimethylaminoethylamino)-17-demethoxygeldanamycin]
IC50 [2]: 919 nM

IC50 (A549): 2590 ± 170 nM
IC50 (A549/taxol): 460 ± 30 nM
IC50 (A549/cisplatin): 2110 ± 100 nM
IC50 (HCT116): 710 ± 100 nM
IC50 (MDA-MB-231): 320 ± 90 nM
solubility (Water solubility by HPLC): < 5 µM
IC50 (HepG2): 1140 ± 90 nM
SMILES: CC(C)=CCC12OC(C)(C)C3CC(C=C4C(=O)c5c(O)cccc5OC431)C2=O (stereo not shown) [DDO-6101, reference compound]
inhibition of the tumour volume, control groups (HepG2 tumours): 36.81%

SMILES: CC(C)=CCC12OC(C)(C)C3[C@@H](CN4CCN(C)CC4)C(C=C4C(=O)c5c(O)cccc5OC431)C2=O (stereo partly shown) [DDO-6267]
oral antitumor activity compared with GA [3]: better oral antitumor activity than GA

SMILES: C/C(=C\CC12OC(C)(C)C3CC(C=C4C(=O)c5c(O)cccc5OC431)C2=O)COC(=O)CN(C)C (stereo not shown) [DDO-6306]
inhibition of tumour growth (Heps tumour): 52.6%
